Test results published in patent US12227501B2, “3-amino-2-[2-(acylamino)pyridin-4-yl]-1,5,6,7-tetrahydro-4h-pyrrolo[3,2-c]pyridin-4-one as CSNK1 inhibitors” (Bayer Aktiengesellschaft, priority 2019, dated 2025).
pIC50: −log10 of the molar value. Where two headings read alike, the source gives them in different places.

Legend:
Format in all cases: biochemical
[1] = target: T1, human CSNK1A1 (Homo sapiens (Human), UniProt P48729); test: CSNK1A1 Assay 2 (ADP-Glo, 1 μM ATP); conditions: substrate biotin-Ahx-KRRRAL-pS-VASLPGL, read-out: CSNK1A1 Assay 2 IC50 [mol/l] (median)
Experimental: CSNK1A1-inhibitory activity of compounds of the present invention in presence of 1 μM adenosine-tri-phosphate (ATP) was quantified employing the CSNK1A1 assay as described in the following paragraphs. In essence, the enzyme activity is measured by quantification of the adenosine-di-phosphate (ADP), which is generated as a co-product of the enzyme reaction, via the “ADP-Glo™ Kinase Assay” kit from the company Promega. This detection system works as follows: In a first step the ATP not consumed in the kinase reaction is quantitatively converted to cAMP employing an adenylate cyclase (“ADP-Glo-reagent”), then the adenylate cyclase is stopped and the ADP generated in the kinase reaction converted to ATP which generates in a luciferase-based reaction a glow-luminescence signal (“Kinase Detection Reagent”). Recombinant fusion protein of N-terminal Glutathion-S-Transferase (GST) and full-length human CSNK1A1, expressed by baculovirus infected insect cells and purified via Glutathion affinity chromatography, was purchased from Life Technologies (product no. PV4174) and used as enzyme. As substrate for the kinase reaction the biotinylated peptide biotin-Ahx-KRRRAL-pS-VASLPGL (C-terminus in amide form) was used which can be purchased e.g. from the company Biosyntan (Berlin-Buch, Germany).
For the assay 50 nl of a 100 fold concentrated solution of the test compound in DMSO was pipetted into a white 1536-well microtiter plate (Greiner Bio-One, Frickenhausen, Germany), 2 μL of a solution of CSNK1A1 in aqueous assay buffer [50 mM HEPES pH 7.5, 10% (v/v) glycerol, 10 mM MgCl2, 50 mM NaCl, 1 mM dithiothreitol, 0.01% (w/v) bovine serum albumin, 0.01% (v/v) Triton X-100] were added and the mixture was incubated for 15 min at 22° C. to allow pre-binding of the test compounds to the enzyme before the start of the kinase reaction. […] The concentration of CSNK1A1 was adjusted depending of the activity of the enzyme lot and was chosen appropriate to have the assay in the linear range, a typical concentrations are about 0.0375 ng/μL. The reaction was stopped by the addition of 2.5 μL of “ADP-Glo-reagent” (1:1.5 fold diluted with water) and the resulting mixture was incubated at 22° C. for 1 h to convert the ATP not consumed in the kinase reaction completely […]. Subsequently 2.5 μL of the “kinase detection reagent” (1.2 fold more concentrated than recommended by the producer) were added, the resulting mixture was incubated at 22° C. for 1 h and then the luminescence measured with a suitable measurement instrument (e.g. Viewlux™ from Perkin-Elmer). The amount of emitted light was taken as a measure for the amount of ADP generated and thereby for the activity of the CSNK1A1.

[2] = target: T1, human CSNK1A1; test: CSNK1A1 High ATP Assay (ADP-Glo, 1 mM ATP); conditions: read-out: CSNK1A1 high ATP assay IC50 [mol/l] (median)
Experimental: CSNK1A1-inhibitory activity of compounds of the present invention in presence of 1 mM adenosine-tri-phosphate (ATP) was quantified employing the CSNK1A1-high-ATP-assay as described in the following paragraphs. In essence, the enzyme activity is measured by quantification of the adenosine-di-phosphate (ADP), which is generated as a co-product of the enzyme reaction, via the “ADP-Glo™ Kinase Assay” kit from the company Promega. This detection system works as follows: In a first step the ATP not consumed in the kinase reaction is quantitatively converted to cAMP employing an adenylate cyclase (“ADP-Glo-reagent”), then the adenylate cyclase is stopped and the ADP generated in the kinase reaction converted to ATP which generates in a luciferase-based reaction a glow-luminescence signal (“Kinase Detection Reagent”).
Recombinant fusion protein of N-terminal Glutathion-S-Transferase (GST) and full-length human CSNK1A1, expressed by baculovirus infected insect cells and purified via Glutathion affinity chromatography, was purchased from Life Technologies (product no. PV4174) and used as enzyme. As substrate for the kinase reaction the biotinylated peptide biotin-Ahx-KRRRAL-pS-VASLPGL (C-terminus in amide form) was used which can be purchased e.g. from the company Biosyntan (Berlin-Buch, Germany).
For the assay 50 nl of a 100 fold concentrated solution of the test compound in DMSO was pipetted into a white low volume 384-well microtiter plate (Greiner Bio-One, Frickenhausen, Germany), 2 μL of a solution of CSNK1A1 in aqueous assay buffer [50 mM HEPES pH 7.5, 10% (v/v) glycerol, 10 mM MgCl2, 50 mM NaCl, 1 mM dithiothreitol, 0.01% (w/v) bovine serum albumin, 0.01% (v/v) Triton X-100] were added and the mixture was incubated for 15 min at 22° C. to allow pre-binding of the test compounds to the enzyme before the start of the kinase reaction. […] The concentration of CSNK1A1 was adjusted depending of the activity of the enzyme lot and was chosen appropriate to have the assay in the linear range, a typical concentration is about 0.4 ng/μL. The reaction was stopped by the addition of 2.5 μL of “ADP-Glo-reagent” (1:1.5 fold diluted with water) and the resulting mixture was incubated at 22° C. for 1 h to convert the ATP not consumed in the kinase reaction completely […]. Subsequently 2.5 μL of the “kinase detection reagent” (1.2 fold more concentrated than recommended by the producer) were added, the resulting mixture was incubated at 22° C. for 1 h and then the luminescence measured with a suitable measurement instrument (e.g. Viewlux™ from Perkin-Elmer). The amount of emitted light was taken as a measure for the amount of ADP generated and thereby for the activity of the CSNK1A1.

[3] = target: human CSNK1D (Homo sapiens (Human), UniProt P48730); test: CSNK1D Assay (ADP-Glo, 1 μM ATP); conditions: read-out: CSNK1D IC50 [mol/l] (median)
Experimental: CSNK1 D-inhibitory activity of compounds of the present invention in presence of 1 μM adenosine-tri-phosphate (ATP) was quantified employing the CSNK1D assay as described in the following paragraphs. In essence, the enzyme activity is measured by quantification of the adenosine-di-phosphate (ADP), which is generated as a co-product of the enzyme reaction, via the “ADP-Glo™ Kinase Assay” kit from the company Promega. This detection system works as follows: In a first step the ATP not consumed in the kinase reaction is quantitatively converted to cAMP employing an adenylate cyclase (“ADP-Glo-reagent”), then the adenylate cyclase is stopped and the ADP generated in the kinase reaction converted to ATP which generates in a luciferase-based reaction a glow-luminescence signal (“Kinase Detection Reagent”). Recombinant fusion protein of N-terminal Glutathion-S-Transferase (GST) and full-length human CSNK1D, expressed by baculovirus infected insect cells and purified via Glutathion affinity chromatography, was purchased from Life Technologies (product no. PV3665) and used as enzyme. As substrate for the kinase reaction the biotinylated peptide Btn-Ahx-[…] (C-terminus in amide form) was used which can be purchased e.g. from the company Biosyntan (Berlin-Buch, Germany).
For the assay 50 nl of a 100 fold concentrated solution of the test compound in DMSO was pipetted into a white 1536-well microtiter plate (Greiner Bio-One, Frickenhausen, Germany), 2 μL of a solution of CSNK1D in aqueous assay buffer [50 mM HEPES pH 7.5, 10% (v/v) glycerol, 10 mM MgCl2, 50 mM NaCl, 1 mM dithiothreitol, 0.01% (w/v) bovine serum albumin, 0.01% (v/v) Triton X-100] were added and the mixture was incubated for 15 min at 22° C. to allow pre-binding of the test compounds to the enzyme before the start of the kinase reaction. […] The concentration of CSNK1 D was adjusted depending of the activity of the enzyme lot and was chosen appropriate to have the assay in the linear range, a typical concentration is about 0.5 ng/μL. The reaction was stopped by the addition of 2.5 μL of “ADP-Glo-reagent” (1:1.5 fold diluted with water) and the resulting mixture was incubated at 22° C. for 1 h to convert the ATP not consumed in the kinase reaction completely […]. Subsequently 2.5 μL of the “kinase detection reagent” (1.2 fold more concentrated than recommended by the producer) were added, the resulting mixture was incubated at 22° C. for 1 h and then the luminescence measured with a suitable measurement instrument (e.g. Viewlux™ from Perkin-Elmer). The amount of emitted light was taken as a measure for the amount of ADP generated and thereby for the activity of the CSNK1D.

[4] = target: wild-type Epidermal Growth Factor Receptor (EGFR) (Homo sapiens (Human), UniProt P00533); test: WT-EGFR Kinase Assay (TR-FRET, 2 mM ATP)
[5] = read-out: EGFR Wildtyp- 2 mM ATP IC50 [mol/l] (median)
[6] = EGFR Wildtyp- 2 mM ATP IC50 [mol/l] (median)

Chain of human CSNK1D (P48730 whole entry): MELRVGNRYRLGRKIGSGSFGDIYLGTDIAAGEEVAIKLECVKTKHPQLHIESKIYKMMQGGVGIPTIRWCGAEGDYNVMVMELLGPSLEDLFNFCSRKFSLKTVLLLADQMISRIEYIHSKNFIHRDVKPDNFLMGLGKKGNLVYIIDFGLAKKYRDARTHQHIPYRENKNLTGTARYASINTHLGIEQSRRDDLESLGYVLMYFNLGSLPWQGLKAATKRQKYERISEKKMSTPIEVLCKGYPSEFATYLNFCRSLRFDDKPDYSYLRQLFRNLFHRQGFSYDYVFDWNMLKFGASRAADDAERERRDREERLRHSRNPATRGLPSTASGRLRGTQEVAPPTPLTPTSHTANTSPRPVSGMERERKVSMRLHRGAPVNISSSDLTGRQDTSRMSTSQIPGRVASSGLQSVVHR
T1 sequence (P48729 whole entry): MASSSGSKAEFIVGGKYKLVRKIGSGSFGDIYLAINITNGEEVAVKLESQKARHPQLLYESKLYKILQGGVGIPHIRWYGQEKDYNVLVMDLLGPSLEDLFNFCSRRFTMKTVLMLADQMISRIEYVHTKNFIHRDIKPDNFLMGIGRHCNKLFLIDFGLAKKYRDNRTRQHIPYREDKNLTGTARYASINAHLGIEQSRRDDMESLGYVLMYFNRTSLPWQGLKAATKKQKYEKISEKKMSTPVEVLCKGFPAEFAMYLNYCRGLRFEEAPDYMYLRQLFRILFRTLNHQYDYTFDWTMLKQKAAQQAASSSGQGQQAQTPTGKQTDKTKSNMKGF
Chain of wild-type Epidermal Growth Factor Receptor (EGFR) (P00533 669-1210): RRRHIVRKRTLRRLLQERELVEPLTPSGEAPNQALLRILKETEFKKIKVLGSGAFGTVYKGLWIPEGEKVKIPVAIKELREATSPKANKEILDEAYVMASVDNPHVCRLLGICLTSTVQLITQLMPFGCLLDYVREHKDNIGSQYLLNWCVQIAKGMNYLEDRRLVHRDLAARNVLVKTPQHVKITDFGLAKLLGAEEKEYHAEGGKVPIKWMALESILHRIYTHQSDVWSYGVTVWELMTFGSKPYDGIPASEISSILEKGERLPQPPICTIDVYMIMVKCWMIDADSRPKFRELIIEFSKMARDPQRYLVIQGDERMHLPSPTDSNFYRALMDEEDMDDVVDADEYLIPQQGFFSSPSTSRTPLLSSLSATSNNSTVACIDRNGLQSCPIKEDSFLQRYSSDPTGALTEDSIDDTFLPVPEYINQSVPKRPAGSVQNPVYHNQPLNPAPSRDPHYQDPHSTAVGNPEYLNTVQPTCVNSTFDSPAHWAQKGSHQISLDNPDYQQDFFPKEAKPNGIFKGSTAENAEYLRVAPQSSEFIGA

Compound | pIC50 [1] | pIC50 [2] | pIC50 [3] | pIC50 [4, 5] | pIC50 [4, 6]
O=C(Cc1ccc(F)cc1)Nc1cc(-c2[nH]c3c(c2Nc2ccccc2)C(=O)NC2(CC2)C3)ccn1 [Example 146, N-[4-(3′-anilino-4′-oxo-1′,4′,5′,7′-tetrahydrospiro[cyclopropane-1,6′-pyrrolo[3,2-c]pyridin]-2′-yl)pyridin-2-yl]-2-(4-fluorophenyl)acetamide] | 8.86 | 8.30 | 8.20 | 6.18 | 
CC1Cc2[nH]c(-c3ccnc(NC(=O)C(CC(F)F)c4ccc(F)cc4)c3)c(Nc3ccccc3F)c2C(=O)N1C (single isomer, unassigned; (-)) [Example 107, (−)-4,4-difluoro-N-{4-[3-(2-fluoroanilino)-5,6-dimethyl-4-oxo-4,5,6,7-tetrahydro-1H-pyrrolo[3,2-c]pyridin-2-yl]pyridin-2-yl}-2-(4-fluorophenyl)butanamide] | 7.34 | 5.50 | 7.23 | < 4.70 | 
CC(C(=O)Nc1cc(-c2[nH]c3c(c2Nc2ccccc2)C(=O)NC(C)(C)C3)ccn1)c1ccc(F)cc1 (stereo not shown) [Example 27, N-[4-(3-anilino-6,6-dimethyl-4-oxo-4,5,6,7-tetrahydro-1H-pyrrolo[3,2-c]pyridin-2-yl)pyridin-2-yl]-2-(4-fluorophenyl)propanamide] | 8.11 | 6.80 | 7.44 | 4.74 | < 4.70
O=C(Cc1ccc(F)cc1)Nc1cc(-c2[nH]c3c(c2Nc2cccc(F)c2Cl)C(=O)NCC3)ccn1 [Example 87, N-{4-[3-(2-chloro-3-fluoroanilino)-4-oxo-4,5,6,7-tetrahydro-1H-pyrrolo[3,2-c]pyridin-2-yl]pyridin-2-yl}-2-(4-fluorophenyl)acetamide] | 8.59 | 7.19 | 8.22 | 6.80 | 
O=C(Cc1ccc(F)cc1)Nc1cc(-c2[nH]c3c(c2Nc2ccccc2)C(=O)N(C2CC2)CC3)ccn1 [Example 7, N-[4-(3-anilino-5-cyclopropyl-4-oxo-4,5,6,7-tetrahydro-1H-pyrrolo[3,2-c]pyridin-2-yl)pyridin-2-yl]-2-(4-fluorophenyl)acetamide] | 8.60 | 6.97 | 8.07 | 5.56 | 
CC(C(=O)Nc1cc(-c2[nH]c3c(c2Nc2ccccc2)C(=O)N(C)CC3)ccn1)c1ccc(Cl)cc1 (single isomer, unassigned; (-)) [Example 80, (−)-N-[4-(3-anilino-5-methyl-4-oxo-4,5,6,7-tetrahydro-1H-pyrrolo[3,2-c]pyridin-2-yl)pyridin-2-yl]-2-(4-chlorophenyl)propanamide] | 7.62 | 5.55 | 7.52 |  | < 4.70
CC1(C)Cc2[nH]c(-c3ccnc(NC(=O)Cc4ccc(F)cc4)c3)c(Nc3cccc(F)c3Cl)c2C(=O)N1 [Example 112, N-{4-[3-(2-chloro-3-fluoroanilino)-6,6-dimethyl-4-oxo-4,5,6,7-tetrahydro-1H-pyrrolo[3,2-c]pyridin-2-yl]pyridin-2-yl}-2-(4-fluorophenyl)acetamide] | 8.17 | 6.78 | 8.08 | 5.46 | 
CC(C(=O)Nc1cc(-c2[nH]c3c(c2Nc2ccccc2)C(=O)N(C)C(C)C3)ccn1)c1ccc(F)cc1 (single isomer, unassigned; (+)) [Example 96, (+)-N-{4-[3-anilino-5,6-dimethyl-4-oxo-4,5,6,7-tetrahydro-1H-pyrrolo[3,2-c]pyridin-2-yl]pyridin-2-yl}-2-(4-fluorophenyl)propanamide] | 8.27 | 7.45 | 8.36 |  | 5.15
CC1(C)Cc2[nH]c(-c3ccnc(NC(=O)C(CC(F)F)c4ccc(F)cc4)c3)c(Nc3ccccc3)c2C(=O)N1 (racemic) [Example 48, N-[4-(3-anilino-6,6-dimethyl-4-oxo-4,5,6,7-tetrahydro-1H-pyrrolo[3,2-c]pyridin-2-yl)pyridin-2-yl]-4,4-difluoro-2-(4-fluorophenyl)butanamide] | 8.11 | 7.43 | 7.87 |  | 4.84
